*1 amine or outer side, *2 acyl side, *3 side chain or, on linkers, in order; H or OH if unused. Where a SMILES comes first, the peptide text is derived from it. Bridges are numbered along the chain shown (N, C = ends). [ ]: non-standard residue; d: D form. The star is where a group is joined. X3 = O=C(O)CN1CCN(CC(=O)O)CCN(CC(=O)NCCCOCCOCCOCCCN*)CCN(CC(=O)O)CC1; Pro(trans-4-NH2) = O=C([C@@H]1C[C@@H](N[*:3])CN1[*:1])[*:2]; DOTA = O=C(O)CN1CCN(CC(=O)O)CCN(CC(=O)*)CCN(CC(=O)O)CC1; Trp(5-Cl) = N[C@@H](Cc1c[nH]c2ccc(Cl)cc12)C(=O)O; Phe(3,5-Cl2) = N[C@@H](Cc1cc(Cl)cc(Cl)c1)C(=O)O; Pyridine(2,6-diCH2) = c1cc(C[*:1])nc(C[*:2])c1; Phe(2-Cl) = N[C@@H](Cc1ccccc1Cl)C(=O)O; 1Nal = N[C@@H](Cc1cccc2ccccc12)C(=O)O; mXylylene = c1cc(C[*:1])cc(C[*:2])c1; Hyp = O=C(O)[C@@H]1C[C@@H](O)CN1; Suc = O=C(CCC(=O)[*:2])[*:1]; hLeu = CC(C)CC[C@H](N)C(=O)O; Api = NC1(C(=O)O)CCNCC1; Thp = NC1(C(=O)O)CCOCC1; Aib = CC(C)(N)C(=O)O
What was measured:
[1] = molecular target: T1, GIPR (CHO-K1-hGIPR cells) (Homo sapiens, UniProt P48546); experiment: FACS binding assay; details: competition with 20 nM GIP-057, 4° C. for 1 hour, read-out: pIC50 Category (converted)
T1 construct: host or cells: CHO-K1
T1 sequence (P48546 22-466): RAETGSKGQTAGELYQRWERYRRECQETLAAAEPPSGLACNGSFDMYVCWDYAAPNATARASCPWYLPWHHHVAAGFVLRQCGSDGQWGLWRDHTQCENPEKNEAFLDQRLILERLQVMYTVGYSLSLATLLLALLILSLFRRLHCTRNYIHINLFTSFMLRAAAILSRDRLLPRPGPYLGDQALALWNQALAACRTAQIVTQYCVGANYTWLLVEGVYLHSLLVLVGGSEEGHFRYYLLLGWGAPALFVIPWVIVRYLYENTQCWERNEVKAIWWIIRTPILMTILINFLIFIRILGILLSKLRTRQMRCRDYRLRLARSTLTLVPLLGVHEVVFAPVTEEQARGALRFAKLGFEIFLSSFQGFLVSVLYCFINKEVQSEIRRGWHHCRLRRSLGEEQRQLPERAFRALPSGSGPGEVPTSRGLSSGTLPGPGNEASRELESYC
In short: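 Steps: detach CHO-K1-hGIPR cells (Accutase); wash in PBS/1% FCS; adjust to 500.000 cells per mL; wash ice-cold; incubate APC-streptavidin 1 μg/mL, 30 min on ice; wash twice; acquire on flow cytometer; fit MFI-concentration data with a four-parameter logistic model.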

[2] = molecular target: human Gastric Inhibitory Peptide Receptor (human) (UniProt P48546); experiment: FACS competition with GIP-057 on CHO-K1-hGIPR cells; pIC50 category A: >8.0

Molecule | IC50 [1] | pIC50 [2]
CC[C@H](C)[C@@H]1NC(=O)[C@H](CC(C)C)NC(=O)C(C)(C)NC(=O)[C@@H](NC(=O)[C@H](CCC(C)C)NC(=O)[C@H](CCC(=O)O)NC(=O)[C@@H]2C[C@@H](NC(=O)CN3CCN(CC(=O)O)CCN(CC(=O)O)CCN(CC(=O)O)CC3)CN2C(=O)[C@H](Cc2cccc3ccccc23)NC(=O)[C@H](Cc2c[nH]c3ccccc23)NC(=O)[C@H](CC(=O)O)NC(C)=O)CSCc2cccc(c2)CSC[C@@H](C(N)=O)NC1=O [GIP-394, Ac-Asp-Trp-1Ni-Tap(DOTA)-Glu-Hle-[Cys(3MeBn)-Aib-Leu-Ile-Cys]-NH2] (Ac-DW[1Nal][Pro(trans-4-NH2)](DOTA)E[hLeu]C[Aib]LIC-NH2; linker 7-11 via mXylylene) | 10 to 79.4 nM | 
CC[C@H](C)[C@@H]1NC(=O)[C@H](CC(C)C)NC(=O)C2(CCOCC2)NC(=O)[C@@H](NC(=O)[C@@H](CC(C)C)NC(=O)[C@H](Cc2ccccc2)NC(=O)[C@@H]2C[C@@H](O)CN2C(=O)[C@H](Cc2c[nH]c3ccc(Cl)cc23)NC(=O)[C@H](Cc2c[nH]c3ccccc23)NC(=O)[C@H](CC(=O)O)NC(C)=O)CSCc2cccc(n2)CSC[C@@H](C(N)=O)NC1=O [GIP-396, Ac-Asp-Trp-5Clw-Hyp-Phe-leu-[Cys(2Lut)-Thp-Leu-Ile-Cys]-NH2] (Ac-DW[Trp(5-Cl)][Hyp]F[dL]C[Thp]LIC-NH2; linker 7-11 via Pyridine(2,6-diCH2)) | 10 to 79.4 nM | 
CC[C@H](C)[C@@H]1NC(=O)[C@H](CC(C)C)NC(=O)C2(CCOCC2)NC(=O)[C@@H](NC(=O)[C@@H](CC(C)C)NC(=O)[C@H](Cc2c[nH]c3ccccc23)NC(=O)[C@@H]2C[C@@H](O)CN2C(=O)[C@H](Cc2c[nH]c3ccc(Cl)cc23)NC(=O)[C@H](Cc2c[nH]c3ccccc23)NC(=O)[C@H](CC(=O)O)NC(C)=O)CSCc2cccc(n2)CSC[C@@H](C(N)=O)NC1=O [GIP-397, Ac-Asp-Trp-5Clw-Hyp-Trp-leu-[Cys(2Lut)-Thp-Leu-Ile-Cys]-NH2] (Ac-DW[Trp(5-Cl)][Hyp]W[dL]C[Thp]LIC-NH2; linker 7-11 via Pyridine(2,6-diCH2)) | 10 to 79.4 nM | 
CC[C@H](C)[C@@H]1NC(=O)[C@H](CC(C)C)NC(=O)C2(CCOCC2)NC(=O)[C@@H](NC(=O)[C@@H](CC(C)C)NC(=O)[C@@H]2CCCN2C(=O)[C@@H]2C[C@@H](O)CN2C(=O)[C@H](Cc2c[nH]c3ccc(Cl)cc23)NC(=O)[C@H](Cc2c[nH]c3ccccc23)NC(=O)[C@H](CC(=O)O)NC(C)=O)CSCc2cccc(n2)CSC[C@@H](C(N)=O)NC1=O [GIP-398, Ac-Asp-Trp-5Clw-Hyp-Pro-leu-[Cys(2Lut)-Thp-Leu-Ile-Cys]-NH2] (Ac-DW[Trp(5-Cl)][Hyp]P[dL]C[Thp]LIC-NH2; linker 7-11 via Pyridine(2,6-diCH2)) | 10 to 79.4 nM | 
CC[C@H](C)[C@@H]1NC(=O)[C@H](CC(C)C)NC(=O)C2(CCOCC2)NC(=O)[C@@H](NC(=O)[C@@H](CC(C)C)NC(=O)[C@H](CCC(=O)O)NC(=O)[C@@H]2C[C@@H](O)CN2C(=O)[C@H](Cc2c[nH]c3ccc(Cl)cc23)NC(=O)[C@H](Cc2ccccc2Cl)NC(=O)[C@H](CC(=O)O)NC(C)=O)CSCc2cccc(n2)CSC[C@@H](C(=O)N[C@H](CCCCNC(=O)CN2CCN(CC(=O)O)CCN(CC(=O)O)CCN(CC(=O)O)CC2)C(N)=O)NC1=O [GIP-399, Ac-Asp-Ocf-5Clw-Hyp-Glu-leu-[Cys(2Lut)-Thp-Leu-Ile-Cys]-lys(DOT A)-NH2] (Ac-D[Phe(2-Cl)][Trp(5-Cl)][Hyp]E[dL]C[Thp]LIC[dK](DOTA)-NH2; linker 7-11 via Pyridine(2,6-diCH2)) | 100 to 794 nM | 
CC[C@H](C)[C@@H]1NC(=O)[C@H](CC(C)C)NC(=O)C2(CCN(C(=O)CN3CCN(CC(=O)O)CCN(CC(=O)O)CCN(CC(=O)O)CC3)CC2)NC(=O)[C@@H](NC(=O)[C@H](CCC(C)C)NC(=O)[C@H](CCC(=O)O)NC(=O)[C@@H]2CCCN2C(=O)[C@H](Cc2cccc3ccccc23)NC(=O)[C@H](Cc2c[nH]c3ccccc23)NC(=O)[C@H](CC(=O)O)NC(C)=O)CSCc2cccc(c2)CSC[C@@H](C(N)=O)NC1=O [GIP-400, Ac-Asp-Trp-1Ni-Pro-Glu-Hle-[Cys(3MeBn)-Apc(DOTA)-Leu-Ile-Cys]-NH2] (Ac-DW[1Nal]PE[hLeu]C[Api](DOTA)LIC-NH2; linker 7-11 via mXylylene) | 100 to 794 nM | 
CC[C@H](C)[C@@H]1NC(=O)[C@H](CC(C)C)NC(=O)C2(CCOCC2)NC(=O)[C@@H](NC(=O)[C@@H](CC(C)C)NC(=O)[C@H](CCC(=O)O)NC(=O)[C@@H]2C[C@@H](O)CN2C(=O)[C@H](Cc2cc(Cl)cc(Cl)c2)NC(=O)[C@H](Cc2c[nH]c3ccccc23)NC(=O)[C@H](CC(=O)O)NC(=O)CCC(=O)NCCCOCCOCCOCCCNC(=O)CN2CCN(CC(=O)O)CCN(CC(=O)O)CCN(CC(=O)O)CC2)CSCc2cccc(n2)CSC[C@@H](C(N)=O)NC1=O [GIP-401, DOTA-Ttds-Asp-Trp-Egn-Hyp-Glu-leu-[Cys(2Lut)-Thp-Leu-Ile-Cys]-NH2] ({X3-Suc}-DW[Phe(3,5-Cl2)][Hyp]E[dL]C[Thp]LIC-NH2; linker 7-11 via Pyridine(2,6-diCH2)) | 10 to 79.4 nM | 
CC[C@H](C)[C@@H]1NC(=O)[C@H](CC(C)C)NC(=O)C2(CCOCC2)NC(=O)[C@@H](NC(=O)[C@@H](CC(C)C)NC(=O)[C@H](CCC(=O)O)NC(=O)[C@@H]2C[C@@H](NC(=O)CN3CCN(CC(=O)O)CCN(CC(=O)O)CCN(CC(=O)O)CC3)CN2C(=O)[C@H](Cc2cc(Cl)cc(Cl)c2)NC(=O)[C@H](Cc2c[nH]c3ccccc23)NC(=O)[C@H](CC(=O)O)NC(C)=O)CSCc2cccc(n2)CSC[C@@H](C(N)=O)NC1=O [GIP-402, Ac-Asp-Trp-Egn-Tap(DOTA)-Glu-leu-[Cys(2Lut)-Thp-Leu-Ile-Cys]-NH2] (Ac-DW[Phe(3,5-Cl2)][Pro(trans-4-NH2)](DOTA)E[dL]C[Thp]LIC-NH2; linker 7-11 via Pyridine(2,6-diCH2)) | 10 to 79.4 nM | 
Ac-Cya-Trp-5Clw-Hyp-Glu-leu-[Cys(2Lut)-Thp-Leu-Ile-Cys]-NH2 (peptide) |  | > 8 pic50
DOTA-APAc-Asp-Trp-5Clw-Hyp-Glu-leu-[Cys(2Lut)-Apc(AGLU-Glutar)-Leu-Ile-Cys]-APAc-glu(AGLU)-NH2 (peptide) |  | > 8 pic50
DOTA-Asp-Trp-5Clw-Hyp-Glu-leu-[Cys(2Lut)-Thp-Leu-Ile-Cys]-NH2 (peptide) |  | > 8 pic50

Source: US20250296971A1, “GASTRIC INHIBITORY PEPTIDE RECEPTOR LIGANDS” (priority 2021, published 2025)
